Source: US20260242738A1, “ALK5 INHIBITORS FOR EFFICIENT DERIVATION OF MESENCHYMAL STEM CELLS FROM EMBRYONIC STEM CELLS” (SCRIPPS HEALTH, priority 2022, published 2026)
“Also recorded” adds a separate entry of the source.

Legend:
[1] = tested on: HADC 100 ES-MSC; experiment: Pellet culture chondrogenesis, histology and immunohistochemistry; type: cell-based, human; conditions: 3 weeks; for cartilage-like tissue formation in high density pellets: HADC 100 ES-MSC, Safranin-O, collagen type I and II
Procedure: Monolayer-expanded ES-MSC (passage 2-5) were detached using Accutase® and 0.5×10^6 cells in 0.5 ml of chondrogenic medium were centrifuged at 900 rpm (~770 G) for 5 minutes to form high-density pellets. At least 5-6 pellets, for each ES-MSC condition, were cultured in serum-free chondrogenic medium consisting of Dulbecco's Modified Eagle Medium (Mediatech Inc., Manassas, VA), 1×ITS supplement (Sigma-Aldrich, St. Louis, MO), 100 nM Dexamethasone (Sigma), 1.25 mg/ml human serum albumin (Bayer, Leverkusen, Germany), 100 μM ascorbic acid 2-phosphate (Sigma), 1% penicillin/streptomycin/gentamycin (PSG, Gibco, Carlsbad, CA), and 10 ng/ml TGFβ3 (PeproTech, Rocky Hill, NJ). Pellets for ex vivo implantation were cultured for 3 days before implantation; pellets for histologic or gene expression analysis were maintained in culture for 3 weeks with media changes every 3 to 4 days.
Cell pellets and explants were fixed in Z-Fix (3.7% formaldehyde, Anatech Ltd., Battle Creek, MI), processed for embedding in paraffin, and cut into 4 μm-thick sections. Sections were stained with Safranin-O and Fast Green to visualize glycosaminoglycan distribution in the tissues. Alzarin Red S staining was used to detect the presence of mineralized matrix.
For assessment of collagen types I and II, sections were pretreated with pepsin (Digest-All 3, Thermo Fisher Scientific) for 9 minutes at 37° C. in a humid chamber before incubation at 4° C. for 12 to 16 hours with the following primary antibodies: rabbit anti-human collagen type I antibody (Ab 34710, Abcam, Cambridge, MA) 1 μg/ml; or mouse anti-human collagen type II (II-II6B3, Hybridoma Bank, University of Iowa) 2 μg/ml. For color development, the ImmPRESS secondary DAB (brown) or AP (red) kits (Vector Laboratories, Burlingame, CA) was used. Isotype controls were used to monitor non-specific staining.

[2] = tested on: ex vivo osteoarthritic cartilage explants; experiment: Ex vivo human osteoarthritic cartilage defect repair with fibrin-ECM constructs or pellets; type: cell-based; conditions: implanted as hydrogel or pellets, 3 weeks, serum-free chondrogenic medium with TGFβ3 10 ng/ml
Procedure: Monolayer cultured ES-MSC were suspended in a hydrogel wafer composed of collagen II (Innovative Research Inc. Novi, MI), hyaluronate (Supartz FX sodium hyaluronate, Seikagaku Corp. Tokyo, Japan), chondroitin sulfate (Sigma-Aldrich) and fibrin (Baxter Healthcare, Deerfield, IL) at a density of 20×10^6 cells per ml. The fibrinogen and thrombin components were prepared separately. To each fibrinogen component, 2 mg/ml sodium hyaluronate, 2 mg/ml chondroitin sulfate and 6 mg/ml collagen II was added (2× concentration of final). Cells were added to the thrombin component at a density of 40×10^6 cells per ml. Thrombin and fibrinogen components in individual syringes were attached to a Baxter DUO mixing syringe and extruded to form the coagulated constructs. The constructs were either directly implanted into ex vivo cartilage tissue or coagulated in 6 well tissue culture plates for 4 to 8 minutes before 4-6 ml of chondrogenic medium was added. To prevent shrinkage of the constructs during culture, the gels were held on AdminPatch microneedle arrays (AdminMed, Sunnyvale, CA) for the duration of their culture.
Osteochondral tissues were obtained from patients ranging between 60 to 70 years of age undergoing total knee arthroplasty within 4-6 hours of surgery (approved by Scripps Institutional Review Board) as previous described. Cartilage disks (6 mm in diameter and ~2-3 mm thick) were harvested from the osteochondral specimens using a sterile dermal punch. The cartilage tissue was cultured in medium consisting of DMEM (Mediatech Inc., Manassas, VA) supplemented with 10% calf serum (Omega Scientific Inc., Tarzana, CA) and 1% Penicillin-Streptomycin-Gentamycin (Life Technologies, Carlsbad, CA). Cartilage disks were maintained in 6-well plates (2-4 per well) in 8 ml medium for 72 hours before creation of the surgical defect. A flame-sterilized stainless-steel burr was used create defects approximately 2×2 mm wide and 0.5 to 1 mm deep. These defects were filled with pellets or hydrogel constructs trimmed to size using 2 mm dermal biopsy punches. […]

| Compound | staining for GAGs, collagen type II and collagen type I in pellets compared to the other ALK5 inhibitors ([1]; HADC 100 ES-MSC pellets) | cartilage-like tissue formation in high density pellets [1] | cartilaginous neo-tissue formation in ex vivo osteoarthritic explants [2] |
| --- | --- | --- | --- |
| Cc1cccc(-c2[nH]c(C(C)(C)C)nc2-c2ccc3nccnc3c2)n1 [SB525334] | most consistent staining for GAGs and collagen type II, and lower collagen type I signal; also recorded: most uniform GAGs and collagen type II deposition, and with reduced collagen type I | also produced cartilage-like tissue | formed equally well |
| NC(=O)c1ccc(-c2nc(-c3ccc4c(c3)OCO4)c(-c3ccccn3)[nH]2)cc1 [SB431542] | – | consistently produced cartilage like-tissue | formed equally well |
